In patent US20240315315A1, “COMPOSITION AND METHOD FOR SUPPRESSING PERCEPTION OF SMOKE OR VAPOR ODOR AND FOR SMOKING OR VAPING CESSATION” (University of Kentucky Research Foundation, priority 2023, published 2024):
Entries after “also recorded” stand apart in the source; their conditions may differ. Like-named read-outs stand apart in the source and are kept apart here.

Tests used:
[1] = test system: perception of 1-pentanethiol; assay: Split-nostril testing with 1-pentanethiol (physical vs dichorhinic mixtures); assay type: in vivo, human; details: for sex comparison of the effect on perceived intensity of 1-pentanethiol: males vs females, citronellal as physical mixture, pentanol as dichorhinic mixture; for perceived pleasantness of mixtures with 1-pentanethiol: isointense amounts mixed in air (N=29)
Protocol: In all experiments each subject was presented with odor samples in a unique random order. Subjects were instructed to take a single inhalation of each sample. Samples were separated by rest periods of at least 50 sec to minimize adaptation. Target odorants (1-pentanethiol or guaiacol) were sampled thrice by each subject prior to the initiation of an experiment. Dilutions of odorants (0.1-, 0.01-, 0.001-, and 0.0001-fold) were prepared in 10 ml of mineral oil in 250 ml brown Boston round bottles. To mimic the conditions of split-nostril testing, each dilution bottle was paired with a bottle containing 10 ml of mineral oil, with both bottles connected to the same Teflon nozzle. Control samples consisted of pairs of bottles containing 10 ml of mineral oil connected to a Teflon nozzle. Subjects simultaneously sniffed from two nozzles, either an odor dilution through one nostril and a control through the other nostril, or controls through both nostrils. Each subject (n=7-9) sniffed a unique random order of dilutions, rating intensity on a scale of 1-10. Dilutions that gave average intensities in the range of 4-5 were selected. Subjects simultaneously sniffed from two pairs of bottles, one pair per nostril. Treatment samples included no odorant controls and target odorants (1-pentanethiol or guaiacol) presented alone or mixed in air with masking odorants. Subjects experienced every sample four times, balanced so that pairings of odors were given twice per nostril, with the exception of the no odor control (10 ml of mineral oil in each bottle), which was presented twice. Subjects rated intensity on a gLMS scale (0-100) via a graphical user interface on a computer, followed by rating pleasantness on a linear scale of −10 to +10. Redjade software was used to produce unique random orders for each subject and to collect intensity and pleasantness ratings. Exclusion criteria were ratings of 0 on >25% of treatments (to exclude hyposmic subjects) and a Pearson correlation coefficient of <35% on test-retest across all treatments. To discriminate peripheral versus CNS odor interaction effects a split-nostril experiment was performed where odorants delivered simultaneously to different nostrils (dichorhinic mixture) can only affect perception via central nervous system (CNS) circuits versus odorants delivered together to the same nostril (physical mixture) where they can affect perception via both peripheral effects and central effects (FIG. 3A). Furthermore, by mixing the odorants in air there is an elimination of reduced volatilization of 1-pentanethiol as a cause of perception of reduced intensity.

perception of guaiacol [2] = assay: Preliminary screen of odorants with guaiacol (physical mixtures in air); assay type: in vivo, human
Protocol: (§1) In all experiments each subject was presented with odor samples in a unique random order. Subjects were instructed to take a single inhalation of each sample. Samples were separated by rest periods of at least 50 sec to minimize adaptation. Target odorants (1-pentanethiol or guaiacol) were sampled thrice by each subject prior to the initiation of an experiment.
(§2) Dilutions of odorants (0.1-, 0.01-, 0.001-, and 0.0001-fold) were prepared in 10 ml of mineral oil in 250 ml brown Boston round bottles. To mimic the conditions of split-nostril testing, each dilution bottle was paired with a bottle containing 10 ml of mineral oil, with both bottles connected to the same Teflon nozzle. Control samples consisted of pairs of bottles containing 10 ml of mineral oil connected to a Teflon nozzle. Subjects simultaneously sniffed from two nozzles, either an odor dilution through one nostril and a control through the other nostril, or controls through both nostrils. Each subject (n=7-9) sniffed a unique random order of dilutions, rating intensity on a scale of 1-10. Dilutions that gave average intensities in the range of 4-5 were selected.
In preliminary screening only physical mixtures were tested. Air mixing was achieved by attaching pairs of 250 ml brown Boston round bottles, one containing the candidate antagonist odorant and the other the target odorant, to a single nozzle. Controls consisted of pairs of bottles, each containing 10 ml of mineral oil, connected to the same Teflon nozzle. Subjects simultaneously sniffed from two nozzles, either a physical mixture through one nostril and the control through the other nostril, or controls through both nostrils. Each sample was repeated so that each physical mixture was sniffed through the left and right nostrils. Each subject sniffed a unique random order of the samples, rating intensity on a scale of 1-10 using Google forms.
(§3) Like 1-pentanethiol, guaiacol is a key odorant in cigarette smoke and is one of the most important components of a simple mimic of cigarette smoke odor. […] A split-nostril experiment was performed to test these hypotheses and determine whether effects were peripheral or central. […] It was confirmed that effects of the physical and dichorhinic mixtures differed by comparing within-subject responses (FIG. 5B).

perception of guaiacol [3] = assay: Split-nostril testing with guaiacol (physical vs dichorhinic mixtures); assay type: in vivo, human; details: for perceived pleasantness of mixtures with guaiacol: compared with guaiacol alone; for effect on perceived intensity of guaiacol: physical mixture (same nostril) vs dichorhinic mixture
Protocol: as §1, §2
Subjects simultaneously sniffed from two pairs of bottles, one pair per nostril. Treatment samples included no odorant controls and target odorants (1-pentanethiol or guaiacol) presented alone or mixed in air with masking odorants. Subjects experienced every sample four times, balanced so that pairings of odors were given twice per nostril, with the exception of the no odor control (10 ml of mineral oil in each bottle), which was presented twice. Subjects rated intensity on a gLMS scale (0-100) via a graphical user interface on a computer, followed by rating pleasantness on a linear scale of −10 to +10. Redjade software was used to produce unique random orders for each subject and to collect intensity and pleasantness ratings. Exclusion criteria were ratings of 0 on >25% of treatments (to exclude hyposmic subjects) and a Pearson correlation coefficient of <35% on test-retest across all treatments.
as §3

[4] = test system: perception of 1-pentanethiol; assay: Preliminary screening for masking of 1-pentanethiol (solution mixtures on cotton balls, intensity and pleasantness ratings); assay type: in vivo; details: solution mixture screen, both odorants in the same cotton ball, human subjects (n=24)
Excerpt: In all experiments each subject was presented with odor samples in a unique random order. Subjects were instructed to take a single inhalation of each sample. Samples were separated by rest periods of at least 50 sec to minimize adaptation. Target odorants (1-pentanethiol or guaiacol) were sampled thrice by each subject prior to the initiation of an experiment. Dilutions (0.1-, 0.01-, 0.001-, and 0.0001-fold) of candidate masking odorants and the key cigarette smoke odorant 1-pentanethiol were prepared in dimethyl sulfoxide. Subjects (5 male and 7 female) sniffed 0.4 ml volumes absorbed in cotton balls from 0.8 ml brown glass vials and rated intensity on a scale of 1-10. Dilutions that gave average intensities in the range of 4-5 were selected for screening tests in which subjects rated intensity on a scale of 1-100 using a paper form. Subjects also rated whether the overall odor of each sample was pleasant or unpleasant (a forced-choice test). Seventeen (17) odorants commonly used as general masking odors or previously tested as cigarette additives designed to improve the perceived pleasantness of cigarette smoke were screened. […] While efficient for screening odorants, the mixing approach used (soaking of both odorants into the same cotton ball) fails to implicate mechanism because it may allow three potential causes for perception of reduced intensity of a target odor: CNS effects where circuit interactions lead to perception of reduced intensity, peripheral effects such as receptor antagonism, and (potentially) reduced volatilization of 1-pentanethiol. Further experiments were required to determine which of these causes explain the effect of citronellal.

[5] = dichorhinic mixture, odorants delivered to different nostrils
[6] = physical mixture delivered to the same nostril, mixed in air
[7] = listed as Methyl-2-methylbutyrate

CCCCCS [1-pentanethiol]
perceived pleasantness of the odorant alone ([1]; split-nostril experiment): moderately unpleasant

C=CC(C)(O)CCC=C(C)C (centres unmarked) [Linalool, reference compound]
interaction with guaiacol (perceived intensity) (perception of guaiacol [2]): three largest interactions
perceived pleasantness of mixtures with guaiacol (perception of guaiacol [3]): no effect of perceived pleasantness

CCCC(O)CCC1C(C)CCCC1(C)C (centres unmarked) [Norlimbanol, reference compound]
interaction with guaiacol (perceived intensity) (perception of guaiacol [2]): three largest interactions
perceived pleasantness of mixtures with guaiacol (perception of guaiacol [3]): no effect of perceived pleasantness

CC(C)=CCCC(C)CC=O (centres unmarked) [citronellal]
effect on perceived intensity of 1-pentanethiol [4]: most effective at reducing the perceived intensity of 1-pentanethiol; also recorded: strongest effect
effect on perceived intensity of 1-pentanethiol ([4]; listed as Citronellal): most effective masking odor
effect on perceived intensity of 1-pentanethiol [1, 5]: did not affect the perceived intensity of 1-pentanethiol
within-subject comparison of perceived 1-pentanethiol, physical vs dichorhinic mixtures ([1]; female participants): showed no difference
within-subject comparison of perceived 1-pentanethiol, physical vs dichorhinic mixtures ([1]; male participants): nearly all males perceived less 1-pentanethiol in physical mixtures
sex comparison of the effect on perceived intensity of 1-pentanethiol [1]: stronger in males than in females
effect on perceived intensity of 1-pentanethiol [1, 6]: reduced the perceived intensity of 1-pentanethiol; also recorded: suppress perception
effect on perceived intensity of 1-pentanethiol ([1]; physical mixture delivered to the same nostril, mixed in air, listed as Citronellal): decreases the perceived intensity of 1-pentanethiol only when delivered as a physical mixture
perceived pleasantness of mixtures with 1-pentanethiol ([1]; split-nostril experiment): improved pleasantness; also recorded: neither pleasant nor unpleasant on average; also recorded: alleviated

CCOC(=O)C(C)CC (centres unmarked) [ethyl-2-methylbutyrate, Ethyl 2-methylbutyrate]
interaction with guaiacol (perceived intensity) (perception of guaiacol [2]): promising effects

CCC(C)C(=O)OC (centres unmarked) [methyl-2-methylbutyrate, methyl 2-methylbutyrate]
interaction with guaiacol (perceived intensity) (perception of guaiacol [2]): promising effects
interaction with guaiacol (perceived intensity) (perception of guaiacol [2]; [7]): three largest interactions
perceived pleasantness of mixtures with guaiacol (perception of guaiacol [3]): no effect of perceived pleasantness
effect on perceived intensity of guaiacol in a physical mixture (perception of guaiacol [3]; male participants (N=6)): significant decrease
effect on perceived intensity of guaiacol (perception of guaiacol [3]): suppressed perception of guaiacol, but only when applied via the same nostril as a physical mixture; also recorded: suppress perception
effect on perceived intensity of guaiacol (perception of guaiacol [3]; [7]): decreases the perceived intensity of guaiacol

CCCCCO [pentanol]
effect on perceived intensity of 1-pentanethiol [4]: no effect on perception of 1-pentanethiol
effect on perceived intensity of 1-pentanethiol [1, 5]: increased the perceived intensity of 1-pentanethiol; also recorded: increases the perceived intensity of 1-pentanethiol only when delivered a dichorhinic mixture
effect on perceived intensity of 1-pentanethiol ([1]; dichorhinic mixture, odorants delivered to different nostrils, listed as 1-pentanol): additive effect mediated centrally
sex comparison of perceived pleasantness of mixtures with 1-pentanethiol ([1]; females (N=19) vs males (N=10)): less pleasant than did males; also recorded: more unpleasant than did males
sex comparison of the effect on perceived intensity of 1-pentanethiol [1]: apparent in both sexes, but appeared slightly stronger in females
effect on perceived intensity of 1-pentanethiol [1, 6]: did not result in any reduction in the perceived intensity of 1-pentanethiol
perceived pleasantness, dichorhinic vs physical mixtures with 1-pentanethiol ([1]; split-nostril experiment (N=29)): less pleasant than physical mixtures; also recorded: more unpleasant than physical mixtures
perceived pleasantness of mixtures with 1-pentanethiol ([1]; split-nostril experiment): did not improve perceived pleasantness; also recorded: little affected
